Data reported in ChEMBL document CHEMBL3745631, “Discovery of highly potent and selective Bruton's tyrosine kinase inhibitors: Pyridazinone analogs with improved metabolic stability” (Bioorg Med Chem Lett, 2016).

Experiments:
Cynomolgus monkey = experiment: Clearance in cynomolgus monkey at 1 mg/kg, iv by LC-MS/MS analysis; format: ADME, organism-based, Macaca fascicularis; conditions: in vivo
[1] = target: Serine/threonine-protein kinase MARK1 (Homo sapiens) (UniProt Q9P0L2); experiment: Inhibition of MARK1 (unknown origin) at 1 uM
[2] = target: Calcium/calmodulin-dependent protein kinase type 1D (Homo sapiens) (UniProt Q8IU85); experiment: Inhibition of CaMK1 delta (unknown origin) at 1 uM
[3] = target: RAC-alpha serine/threonine-protein kinase (Homo sapiens) (UniProt P31749); experiment: Inhibition of AKT1 (unknown origin) at 1 uM
[4] = target: Ephrin type-A receptor 8 (Homo sapiens) (UniProt P29322); experiment: Inhibition of EphA8 (unknown origin) at 1 uM
[5] = target: Bone morphogenetic protein receptor type-1A (Homo sapiens) (UniProt P36894); experiment: Inhibition of BMPR1A (unknown origin) at 1 uM
[6] = system: Epidermal growth factor receptor (Homo sapiens), P00533 [L858R,T790M]; experiment: Inhibition of EGFR T790M,L858R mutant (unknown origin) at 1 uM; format: protein assay
[7] = target: Serine/threonine-protein kinase mTOR (Homo sapiens) (UniProt P42345); experiment: Inhibition of mTOR (unknown origin) at 1 uM
[8] = target: Serine/threonine-protein kinase Nek9 (Homo sapiens) (UniProt Q8TD19); experiment: Inhibition of NEK9 (unknown origin) at 1 uM
[9] = target: Leucine-rich repeat serine/threonine-protein kinase 2 (Homo sapiens) (UniProt Q5S007); experiment: Inhibition of LRRK2 (unknown origin) at 1 uM
[10] = target: Insulin-like growth factor 1 receptor (Homo sapiens) (UniProt P08069); experiment: Inhibition of IGF1R (unknown origin) at 1 uM
[11] = target: Interleukin-1 receptor-associated kinase 4 (Homo sapiens) (UniProt Q9NWZ3); experiment: Inhibition of IRAK4 (unknown origin) at 1 uM
[12] = target: Macrophage colony-stimulating factor 1 receptor (Homo sapiens) (UniProt P07333); experiment: Inhibition of CSF1R (unknown origin) at 1 uM
[13] = target: Ephrin type-B receptor 3 (Homo sapiens) (UniProt P54753); experiment: Inhibition of EphB3 (unknown origin) at 1 uM
[14] = target: Dual specificity protein kinase CLK2 (Homo sapiens) (UniProt P49760); experiment: Inhibition of CLK2 (unknown origin) at 1 uM
[15] = target: Casein kinase I isoform epsilon (Homo sapiens) (UniProt P49674); experiment: Inhibition of CK1 epsilon1 (unknown origin) at 1 uM
[16] = target: Interleukin-1 receptor-associated kinase 1 (Homo sapiens) (UniProt P51617); experiment: Inhibition of IRAK1 (unknown origin) at 1 uM
[17] = Inhibition of anti-IgM-stimulated human B cell proliferation
[18] = target: Mitogen-activated protein kinase 8 (Homo sapiens) (UniProt P45983); experiment: Inhibition of JNK1 alpha1 (unknown origin) at 1 uM
[19] = target: Calcium/calmodulin-dependent protein kinase type 1 (Homo sapiens) (UniProt Q14012); experiment: Inhibition of CaMKI (unknown origin) at 1 uM
[20] = Oral bioavailability in rat at 5 mg/kg by LC-MS/MS analysis; format: ADME, organism-based; conditions: in vivo
[21] = target: Ephrin type-A receptor 1 (Homo sapiens) (UniProt P21709); experiment: Inhibition of EphA1 (unknown origin) at 1 uM
[22] = target: Serine/threonine-protein kinase Chk2 (Homo sapiens) (UniProt O96017); experiment: Inhibition of CHK2 (unknown origin) at 1 uM
[23] = target: Mast/stem cell growth factor receptor Kit (Homo sapiens) (UniProt P10721); experiment: Inhibition of Kit (unknown origin) at 1 uM
[24] = target: Ephrin type-A receptor 7 (Homo sapiens) (UniProt Q15375); experiment: Inhibition of EphA7 (unknown origin) at 1 uM
[25] = target: Activated CDC42 kinase 1 (Homo sapiens) (UniProt Q07912); experiment: Inhibition of TNK2 (unknown origin) at 1 uM
Liver microsome = experiment: Intrinsic clearance in human liver microsomes at 1 uM by LC-MS/MS analysis in presence of NADPH; format: ADME
[26] = Cytotoxicity against human T cells assessed as cell proliferation
[27] = target: Serine/threonine-protein kinase 33 (Homo sapiens) (UniProt Q9BYT3); experiment: Inhibition of STK33 (unknown origin) at 1 uM
[28] = target: Beta-adrenergic receptor kinase 1 (Homo sapiens) (UniProt P25098); experiment: Inhibition of GRK2 (unknown origin) at 1 uM
[29] = target: Tyrosine-protein kinase Tec (Homo sapiens, UniProt P42680); experiment: Inhibition of TEC (unknown origin)
[30] = target: Protein kinase C epsilon type (Homo sapiens) (UniProt Q02156); experiment: Inhibition of PKCepsilon (unknown origin) at 1 uM
[31] = target: Tyrosine-protein kinase Yes (Homo sapiens) (UniProt P07947); experiment: Inhibition of Yes (unknown origin) at 1 uM
[32] = target: Dual specificity tyrosine-phosphorylation-regulated kinase 1A (Homo sapiens) (UniProt Q13627); experiment: Inhibition of DYRK1A (unknown origin) at 1 uM
[33] = target: Tyrosine-protein kinase Fgr (Homo sapiens, UniProt P09769); experiment: Inhibition of FGR (unknown origin)
[34] = Oral bioavailability in dog at 5 mg/kg by LC-MS/MS analysis; format: ADME, organism-based, Canis lupus familiaris; conditions: in vivo
[35] = target: Death-associated protein kinase 3 (Homo sapiens) (UniProt O43293); experiment: Inhibition of ZIPK (unknown origin) at 1 uM
[36] = target: Serine/threonine-protein kinase B-raf (Homo sapiens) (UniProt P15056); experiment: Inhibition of B-Raf (unknown origin) at 1 uM
[37] = target: Serine/threonine-protein kinase pim-1 (Homo sapiens) (UniProt P11309); experiment: Inhibition of PIM1 (unknown origin) at 1 uM
[38] = target: Serine/threonine-protein kinase 26 (Homo sapiens) (UniProt Q9P289); experiment: Inhibition of MST4 (unknown origin) at 1 uM
[39] = target: Dual specificity protein kinase TTK (Homo sapiens) (UniProt P33981); experiment: Inhibition of TTK (unknown origin) at 1 uM
[40] = target: Phosphatidylinositol 4,5-bisphosphate 3-kinase catalytic subunit alpha isoform (Homo sapiens) (UniProt P42336); experiment: Inhibition of PI3KA (unknown origin) at 1 uM
hERG (KCNH2) = hERG (KCNH2) (Homo sapiens, UniProt Q12809); experiment: Inhibition of human ERG at 10 uM
[41] = target: Ephrin type-A receptor 3 (Homo sapiens) (UniProt P29320); experiment: Inhibition of EphA3 (unknown origin) at 1 uM
[42] = target: Serine/threonine-protein kinase PLK2 (Homo sapiens) (UniProt Q9NYY3); experiment: Inhibition of PLK2 (unknown origin) at 1 uM
Homo sapiens = species on record: Homo sapiens; experiment: Inhibition of PKA (unknown origin) at 1 uM

Sequence of Serine/threonine-protein kinase Chk2 (Homo sapiens) (O96017 whole entry): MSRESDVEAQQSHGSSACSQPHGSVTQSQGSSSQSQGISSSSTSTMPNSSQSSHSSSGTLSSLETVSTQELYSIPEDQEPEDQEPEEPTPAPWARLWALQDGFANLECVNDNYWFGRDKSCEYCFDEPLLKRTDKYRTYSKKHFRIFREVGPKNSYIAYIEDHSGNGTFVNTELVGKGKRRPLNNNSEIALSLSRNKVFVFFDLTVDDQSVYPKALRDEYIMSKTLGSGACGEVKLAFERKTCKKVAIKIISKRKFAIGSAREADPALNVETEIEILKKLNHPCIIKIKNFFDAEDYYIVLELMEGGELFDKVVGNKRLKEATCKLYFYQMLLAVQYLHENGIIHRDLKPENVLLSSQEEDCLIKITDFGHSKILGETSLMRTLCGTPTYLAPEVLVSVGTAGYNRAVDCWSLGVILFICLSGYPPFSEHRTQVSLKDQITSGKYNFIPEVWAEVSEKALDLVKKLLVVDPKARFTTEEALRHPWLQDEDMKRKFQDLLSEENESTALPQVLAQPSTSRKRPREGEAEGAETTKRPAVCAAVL
Sequence of RAC-alpha serine/threonine-protein kinase (Homo sapiens) (P31749 whole entry): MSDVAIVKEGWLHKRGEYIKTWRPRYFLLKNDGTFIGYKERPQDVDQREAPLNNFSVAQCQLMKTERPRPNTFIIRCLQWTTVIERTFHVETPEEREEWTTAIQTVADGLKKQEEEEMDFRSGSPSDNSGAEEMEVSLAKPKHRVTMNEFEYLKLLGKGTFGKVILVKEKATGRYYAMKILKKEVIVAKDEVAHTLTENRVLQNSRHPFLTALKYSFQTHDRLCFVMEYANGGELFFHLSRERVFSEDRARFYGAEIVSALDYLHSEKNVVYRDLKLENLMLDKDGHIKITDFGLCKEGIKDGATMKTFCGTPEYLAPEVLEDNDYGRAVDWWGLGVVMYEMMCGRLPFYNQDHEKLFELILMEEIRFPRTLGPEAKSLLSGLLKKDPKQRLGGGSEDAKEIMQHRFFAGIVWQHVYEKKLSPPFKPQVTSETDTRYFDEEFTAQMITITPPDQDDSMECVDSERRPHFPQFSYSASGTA
Sequence of Dual specificity protein kinase CLK2 (Homo sapiens) (P49760 whole entry, looked up, canonical isoform): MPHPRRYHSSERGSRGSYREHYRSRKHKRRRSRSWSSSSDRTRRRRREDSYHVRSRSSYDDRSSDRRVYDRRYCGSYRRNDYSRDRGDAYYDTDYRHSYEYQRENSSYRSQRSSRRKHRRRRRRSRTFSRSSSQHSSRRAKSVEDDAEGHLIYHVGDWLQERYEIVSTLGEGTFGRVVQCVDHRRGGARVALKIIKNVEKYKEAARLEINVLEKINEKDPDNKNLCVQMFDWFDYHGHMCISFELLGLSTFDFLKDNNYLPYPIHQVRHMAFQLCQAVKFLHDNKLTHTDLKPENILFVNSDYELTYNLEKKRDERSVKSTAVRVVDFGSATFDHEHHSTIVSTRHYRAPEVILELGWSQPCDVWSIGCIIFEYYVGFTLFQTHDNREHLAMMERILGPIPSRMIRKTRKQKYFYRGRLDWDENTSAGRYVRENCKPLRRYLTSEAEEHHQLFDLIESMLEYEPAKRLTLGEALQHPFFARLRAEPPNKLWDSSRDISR
Sequence of Ephrin type-A receptor 7 (Homo sapiens) (Q15375 28-998 limits assumed): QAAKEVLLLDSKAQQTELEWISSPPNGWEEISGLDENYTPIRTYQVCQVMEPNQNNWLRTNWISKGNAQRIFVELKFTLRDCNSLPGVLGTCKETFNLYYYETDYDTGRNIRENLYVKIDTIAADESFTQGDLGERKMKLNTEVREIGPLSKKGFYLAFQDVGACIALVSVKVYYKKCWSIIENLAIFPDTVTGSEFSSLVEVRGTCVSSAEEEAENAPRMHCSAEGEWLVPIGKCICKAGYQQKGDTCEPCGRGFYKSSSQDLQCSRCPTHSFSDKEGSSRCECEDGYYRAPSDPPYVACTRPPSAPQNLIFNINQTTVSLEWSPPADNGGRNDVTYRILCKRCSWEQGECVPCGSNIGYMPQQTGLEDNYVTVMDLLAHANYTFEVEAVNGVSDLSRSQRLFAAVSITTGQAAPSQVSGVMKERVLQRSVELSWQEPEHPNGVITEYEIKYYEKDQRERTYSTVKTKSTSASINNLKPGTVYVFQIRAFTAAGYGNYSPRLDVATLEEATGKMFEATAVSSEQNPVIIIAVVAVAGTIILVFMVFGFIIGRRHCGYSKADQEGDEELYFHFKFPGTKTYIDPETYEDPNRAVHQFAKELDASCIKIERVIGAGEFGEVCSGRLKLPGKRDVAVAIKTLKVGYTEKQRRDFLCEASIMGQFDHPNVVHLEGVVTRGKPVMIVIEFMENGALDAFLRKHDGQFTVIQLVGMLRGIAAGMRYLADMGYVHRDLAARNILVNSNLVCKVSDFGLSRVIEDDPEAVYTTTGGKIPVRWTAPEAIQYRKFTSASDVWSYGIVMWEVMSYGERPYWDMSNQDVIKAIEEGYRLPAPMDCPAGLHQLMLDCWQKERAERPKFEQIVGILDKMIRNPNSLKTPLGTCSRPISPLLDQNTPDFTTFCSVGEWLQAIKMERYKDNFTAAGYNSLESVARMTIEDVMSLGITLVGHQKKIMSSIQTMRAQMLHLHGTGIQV
Sequence of Serine/threonine-protein kinase PLK2 (Homo sapiens) (Q9NYY3 whole entry, looked up): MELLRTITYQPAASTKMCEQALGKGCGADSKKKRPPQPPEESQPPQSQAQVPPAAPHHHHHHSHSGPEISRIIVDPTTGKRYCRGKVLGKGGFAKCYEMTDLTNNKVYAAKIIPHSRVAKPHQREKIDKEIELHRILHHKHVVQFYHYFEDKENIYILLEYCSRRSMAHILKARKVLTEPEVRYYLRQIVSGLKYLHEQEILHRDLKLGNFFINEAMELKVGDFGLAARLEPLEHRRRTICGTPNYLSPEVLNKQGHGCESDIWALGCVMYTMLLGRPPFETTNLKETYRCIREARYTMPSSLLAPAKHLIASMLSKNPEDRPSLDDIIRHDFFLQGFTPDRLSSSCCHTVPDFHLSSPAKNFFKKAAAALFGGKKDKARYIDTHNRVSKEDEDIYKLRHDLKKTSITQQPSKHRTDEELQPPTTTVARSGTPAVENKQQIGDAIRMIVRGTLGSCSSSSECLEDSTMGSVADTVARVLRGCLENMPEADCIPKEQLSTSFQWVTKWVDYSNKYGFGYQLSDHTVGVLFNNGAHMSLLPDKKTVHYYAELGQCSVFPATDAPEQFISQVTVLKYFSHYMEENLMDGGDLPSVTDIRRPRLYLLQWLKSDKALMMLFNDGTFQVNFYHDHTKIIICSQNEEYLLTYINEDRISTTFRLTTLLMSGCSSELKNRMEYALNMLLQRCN
Sequence of Ephrin type-A receptor 3 (Homo sapiens) (P29320 whole entry): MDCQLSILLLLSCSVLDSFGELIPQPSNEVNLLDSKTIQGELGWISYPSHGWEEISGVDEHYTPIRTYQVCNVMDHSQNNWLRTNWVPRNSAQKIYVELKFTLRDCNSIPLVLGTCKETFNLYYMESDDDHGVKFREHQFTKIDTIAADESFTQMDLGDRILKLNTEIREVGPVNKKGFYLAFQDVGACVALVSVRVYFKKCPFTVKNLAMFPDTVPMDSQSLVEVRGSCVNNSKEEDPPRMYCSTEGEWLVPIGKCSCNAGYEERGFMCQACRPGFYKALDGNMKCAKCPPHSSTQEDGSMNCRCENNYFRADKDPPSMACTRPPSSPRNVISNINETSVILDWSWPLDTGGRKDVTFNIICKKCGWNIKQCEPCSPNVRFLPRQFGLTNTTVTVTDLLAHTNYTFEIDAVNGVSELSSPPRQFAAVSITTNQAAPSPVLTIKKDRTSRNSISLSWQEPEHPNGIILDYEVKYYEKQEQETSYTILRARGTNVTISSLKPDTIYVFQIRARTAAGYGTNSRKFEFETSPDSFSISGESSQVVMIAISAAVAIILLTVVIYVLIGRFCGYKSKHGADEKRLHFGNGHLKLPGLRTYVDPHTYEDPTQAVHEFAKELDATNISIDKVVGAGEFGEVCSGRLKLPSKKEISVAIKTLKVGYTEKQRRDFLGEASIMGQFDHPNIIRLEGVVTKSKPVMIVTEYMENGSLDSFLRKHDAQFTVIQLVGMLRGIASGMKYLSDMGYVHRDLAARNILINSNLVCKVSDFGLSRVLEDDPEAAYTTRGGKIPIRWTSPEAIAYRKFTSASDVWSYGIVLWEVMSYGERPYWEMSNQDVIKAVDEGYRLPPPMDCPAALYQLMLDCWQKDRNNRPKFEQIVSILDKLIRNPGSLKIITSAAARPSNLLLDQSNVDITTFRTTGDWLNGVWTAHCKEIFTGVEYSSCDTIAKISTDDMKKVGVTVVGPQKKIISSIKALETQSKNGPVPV
Sequence of Interleukin-1 receptor-associated kinase 4 (Homo sapiens) (Q9NWZ3 whole entry): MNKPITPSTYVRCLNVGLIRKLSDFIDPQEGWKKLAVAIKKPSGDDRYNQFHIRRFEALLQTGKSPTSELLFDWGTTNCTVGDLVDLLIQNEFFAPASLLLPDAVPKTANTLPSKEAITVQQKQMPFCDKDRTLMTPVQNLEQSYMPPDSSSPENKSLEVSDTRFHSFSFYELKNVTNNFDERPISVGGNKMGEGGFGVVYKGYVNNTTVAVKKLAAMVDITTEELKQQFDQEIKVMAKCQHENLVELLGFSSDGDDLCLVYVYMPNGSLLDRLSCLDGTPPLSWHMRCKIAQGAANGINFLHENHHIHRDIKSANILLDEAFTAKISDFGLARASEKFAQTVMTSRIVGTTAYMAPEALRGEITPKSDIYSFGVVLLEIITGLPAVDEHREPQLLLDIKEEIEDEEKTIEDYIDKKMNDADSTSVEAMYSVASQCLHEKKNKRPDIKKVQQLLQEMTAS
Sequence of Mitogen-activated protein kinase 8 (Homo sapiens) (P45983 whole entry): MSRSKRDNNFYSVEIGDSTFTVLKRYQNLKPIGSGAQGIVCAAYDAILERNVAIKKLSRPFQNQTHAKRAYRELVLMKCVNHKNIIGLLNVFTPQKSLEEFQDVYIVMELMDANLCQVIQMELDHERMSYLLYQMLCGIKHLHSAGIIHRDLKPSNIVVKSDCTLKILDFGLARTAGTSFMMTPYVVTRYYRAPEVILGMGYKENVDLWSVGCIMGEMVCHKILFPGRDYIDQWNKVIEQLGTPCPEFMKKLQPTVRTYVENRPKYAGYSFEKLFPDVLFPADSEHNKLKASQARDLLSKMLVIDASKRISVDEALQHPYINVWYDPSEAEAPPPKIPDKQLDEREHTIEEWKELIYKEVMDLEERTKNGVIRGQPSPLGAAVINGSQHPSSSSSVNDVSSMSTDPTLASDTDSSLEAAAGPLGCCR

clearance (Cynomolgus monkey): 4 mL/min/kg
inhibition [1]: -4.7%
inhibition [2]: 5.8%
inhibition [3]: 2.5%
inhibition [4]: 7.2%
inhibition [5]: -4.5%
inhibition [6]: 6.1%
inhibition [7]: 1.1%
inhibition [9]: 4.7%
inhibition [10]: 6.4%
inhibition [11]: 2%
inhibition [12]: 13%
inhibition [13]: 2.5%
inhibition [14]: -7%
inhibition [15]: 8.6%
inhibition [16]: -2.2%
inhibition [18]: 8.7%
inhibition [19]: 6.3%
bioavailability [20]: 26%
inhibition [21]: 2.2%
inhibition [22]: -3.8%
inhibition [23]: 1.9%
inhibition [24]: -2%
inhibition [25]: 15.9%
CLH (Liver microsome): 6 mL/min/kg
inhibition [27]: 8.3%
inhibition [28]: 0.8%
IC50 [29]: 230 nM
inhibition [30]: -6.8%
inhibition [31]: 20.8%
inhibition [32]: 4.8%
IC50 [33]: 1030 nM
bioavailability [34]: 65%
inhibition [36]: 0.6%
inhibition [37]: 4.5%
inhibition [38]: 8.6%
inhibition [39]: 7.2%
inhibition [40]: 5.7%
inhibition [41]: -3.9%
inhibition [42]: 5.8%
inhibition (Homo sapiens): -4.8%
SMILES: Cc1c(-c2cc(Nc3cc4n(n3)CCN(C)C4)c(=O)[nH]n2)ccc(F)c1NC(=O)c1cc2ccccc2s1
inhibition [8]: -7.6%
EC50 [17]: 6 nM
EC50 [26]: > 5000 nM
inhibition [35]: -2%
inhibition at 10 µM (hERG (KCNH2)): 27%
